Measurements reported in patent publication US5101072A, “Sulfonylhydrazines and their use as antineoplastic agents and as antitrypanosomal agents” (Yale University, priority 1989, dated 1992).
One block for each compound: values may come before it.

Tests used:
L1210 leukemia = test: Survival time of mice bearing the L1210 leukemia; type: in vivo; details: for 60-day cures, % / % T/C (average survival time of treated/control animals × 100): L1210, at optimum effective daily dose, once daily × 6 days
Protocol: The tumor-inhibitory properties of several compounds, e.g., 1,2-bis(methylsulfonyl)-1-methylhydrazine, 1-methyl-1,2,2-tris(methylsulfonyl)hydrazine, 1,2-bis(methylsulfonyl)-1,2-dimethylhydrazine and 1-(2-chloroethyl)-1,2,2-tris(methylsulfonyl)hydrazine were determined by measuring the effects of these agents on the survival time of mice bearing the L1210 leukemia as described by K. Shyam, L. A. Cosby, and A. C. Sartorelli, J. Med. Chem., 28, 525-527 (1985).
^a Administered once daily for 6 consecutive days, beginning 24 hours
after tumor transplantation with 5-10 animals being used per group.
^b Average change in body weight from onset to termination of therapy
^c % T/C = average survival time of treated/control animals ×

[1] = tested on: T. rhodesiense (Y Tat 1.1); test: Survival time of CD-1 mice infected with T. rhodesiense (trypanocidal activity); type: in vivo, T. rhodesiense (Y Tat 1.1); CD-1 mice; details: for Mean Extension of Life (Table III): administered in 0.05 ml of DMSO, dose not given
Protocol: The trypanocidal properties of several methylating agents including MeSO2 N(Me)N(SO2 Me)2 and MeSO2 N(Me)N(Me)SO2 Me were determined by measuring their effects on the survival time of CD-1 mice infected with T. rhodesiense (Y Tat 1.1), a pleimorphic strain that produces a non-relapsing disease in mice. The level of parasites in the bloodstream and body fluids increases by approximately 10-fold per day and the animals die when the parasite burden exceeds 1 to 2×10^9 cells/ml. Infection with a single viable parasite will kill a mouse in approximately 9 to 10 days.
Mice were infected ip with approximately 10^6 trypanosomes/mouse in phosphate buffered saline containing glucose. This level of parasites produces death in 4 days post-infection. These mice were treated (ip) with a single dose of drug dissolved in the appropriate vehicle 3 days after infection, when the parasitemia was 1 to 3×10^8 cells/ml of blood and the mice, if untreated, would survive for only 24 additional hours. The number of days the mice survived beyond that of the untreated controls was used as a measure of trypanocidal activity. The level of parasitemia in treated mice was measured at regular intervals to distinguish between parasite-related and drug toxicity-related deaths. No toxic deaths were observed. Mice that survived for 30 days without detectable parasitemias were considered cured. The effects of a single dose of various methylating agents on the survival time of trypanosome-bearing mice are summarized in Table II.
^a Drug that was administered was dissolved in 0.5 ml of phosphate
buffered saline containing glucose.
^b Drug that was administered was dissolved in 0.05 ml of DMSO.

[2] = Methanol generation in vitro (spontaneous breakdown to generate reactive methyl groups); type: physicochemical; details: relative; PhSO2 N(Me)NHSO2 Ph = 1.0
Protocol: The reaction of 1,2-bis(sulfonyl)-1-methylhydrazine with water at pH 7.4-7.6 at 37° C. can be followed by proton release and/or methanol generation. Methanol generation can be assayed using alcohol oxidase and measuring the resultant O2 consumption using a Gilson oxygraph. This assay can be calibrated using methanol standards. The reaction of 1,2-bis(sulfonyl)-1-methylhydrazine with water is relatively fast [a 50 μM solution of 1,2-bis(methylsulfonyl)-1-methylhydrazine decomposes at an initial rate of 12-15% per minute in phosphate buffered saline (pH 7.6) at 37° C.] compared to the hydroylsis of 1,2,2-tris(methylsulfonyl)-1-methylhydrazine. RSO2 N=NMe may also decompose by a free radical mechanism to a smaller extent and methylate by the generation of methyl radicals.
Methanol was produced by these agents in aqueous solutions free from strong competing nucleophiles. Formation of this alcohol was used as a measure of the rate of spontaneous breakdown of these compounds to generate reactive methyl groups. […] These findings provide strong evidence that methylation is essential for the observed biological activity of these compounds.

T. rhodesiense = test: Oral trypanocidal activity (preliminary); type: in vivo, T. rhodesiense; mice; details: aqueous solutions, preliminary results
From the text: Orally active trypanocidal agents are desirable since, in areas where trypanosomiasis is endemic, other routes of drug administration frequently present problems.

[3] = mice bearing L1210, at optimum effective daily dose
[4] = single ip dose 0.2 mmol/kg in 0.5 ml phosphate buffered saline containing glucose
[5] = single ip dose 0.2 mmol/kg in 0.05 ml of DMSO

SMILES: COc1ccc(S(=O)(=O)N(CCCl)N(S(C)(=O)=O)S(C)(=O)=O)cc1 [MeO-4-C6 H4 SO2 N(CH2 CH2 Cl)N(SO2 Me)2, 2,2-Bis(methylsulfonyl)-1-(2-chloroethyl)-1-[(4-methoxyphenyl)sulfonyl]hydrazine]
- 60-day cures, % (L1210 leukemia): 100%
- AvΔ Wt, % (average change in body weight from onset to termination of therapy) (L1210 leukemia; [3]): +5.9%

SMILES: CN(C)N=Nc1[nH]cnc1C(N)=O [DTIC, 5-(3,3-dimethyl-1-triazenyl)-1H-imidazole-4-carboxamide]
- Mean Extension of Life [1, 4]: 6.0 days

- Relative Methanol Generation in vitro [2]: 0
SMILES: O=S(=O)(NNS(=O)(=O)c1ccccc1)c1ccccc1 [PhSO2 NHNHSO2 Ph]
- Mean Extension of Life (Table III) [1]: 0 days

SMILES: CNNC [MeNHNHMe, 1,2-dimethylhydrazine]
- Mean Extension of Life [1, 4]: 4.3 days

SMILES: COS(=O)(=O)OC [Me2 SO4]
- Mean Extension of Life [1, 5]: 3.0 days

SMILES: CN(N=O)C(N)=O [N-Methyl-N-nitrosourea]
- Mean Extension of Life [1, 5]: 8.0 days

- Relative Methanol Generation in vitro [2]: 0
SMILES: CN(NC(=O)c1ccccc1)C(=O)c1ccccc1 [PhCON(Me)NHCOPh]
- Mean Extension of Life (Table III) [1]: 0 days

SMILES: CNNCc1ccc(C(=O)NC(C)C)cc1 [Procarbazine, procarbazine]
- Mean Extension of Life [1, 4]: 5.0 days

SMILES: CS(=O)(=O)N(CCBr)N(S(C)(=O)=O)S(C)(=O)=O [MeSO2 N(CH2 CH2 Br)N(SO2 Me)2, 1-(2-bromoethyl)-1,2,2-tris(methylsulfonyl)hydrazine]
- 60-day cures, % (L1210 leukemia): 0%
- % T/C (average survival time of treated/control animals × 100) (L1210 leukemia): 213%
- AvΔ Wt, % (average change in body weight from onset to termination of therapy) (L1210 leukemia; [3]): -2.0%

SMILES: CN(N=O)C(=O)N[C@H]1C(O)O[C@H](CO)[C@@H](O)[C@@H]1O (stereo partly shown) [Streptozotocin, streptozotocin]
- Mean Extension of Life [1, 4]: 4.3 days

SMILES: CN(N(C)S(C)(=O)=O)S(C)(=O)=O [MeSO2 N(Me)N(Me)SO2 Me, 1,2-Bis(methylsulfonyl)-1,2-dimethylhydrazine]
- cure (30 days without detectable parasitemias) [1, 5]: 25%
- Mean Extension of Life for relapsing animals ([1]; single ip dose 0.2 mmol/kg in 0.05 ml of DMSO, relapsing animals): 9.7 days
- 60-day cures, % (L1210 leukemia): 0%
- % T/C (average survival time of treated/control animals × 100) (L1210 leukemia): 158%
- AvΔ Wt, % (average change in body weight from onset to termination of therapy) (L1210 leukemia; mouse, in vivo): -11.3%
- Trypanocidal activity on oral administration compared with Table II (T. rhodesiense): comparable activity to that reported in Table II

SMILES: CCOS(=O)(=O)OCC [Et2 SO4]
- Mean Extension of Life [1, 5]: 0 days

SMILES: CS(=O)(=O)N(CCI)N(S(C)(=O)=O)S(C)(=O)=O [MeSO2 N(CH2 CH2 I)N(SO2 Me)2, 1-(2-iodoethyl)-1,2,2-tris(methylsulfonyl)hydrazine]
- 60-day cures, % (L1210 leukemia): 0%
- % T/C (average survival time of treated/control animals × 100) (L1210 leukemia): 110%
- AvΔ Wt, % (average change in body weight from onset to termination of therapy) (L1210 leukemia; [3]): +8.0%
